The record followed here is patent publication US20230141600A1, “IMIDAZOPYRAZINE DERIVATIVES” (priority 2020, published 2023).

Counter-ions that a name gives are not always drawn.

The first experiment has as its system Acinetobacter baumannii ATCC17961. Description: 90% growth inhibitory concentration (IC90) determination, antimicrobial susceptibility testing. The following applies: 90% growth inhibition, Iso-Sensitest broth, OD 600 nm over 16 h, 35±2° C.; read-out: ATCC 17961 IC90. Format: cell-based. In a few lines: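 Twofold serial dilutions (e.g. 50 to 0.097 μM final) in Iso-Sensitest broth, inoculated at ~5×10^5 CFU/ml and incubated at 35±2 °C for 16 h with OD600 read every minute. IC90 taken from growth inhibition during the logarithmic phase.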
For orientation: IC90 means the concentration needed for an effect of 90%. Regarding “Methyl 2-[1-[1-(azetidin-3-ylmethyl)-1-methyl-piperidin-1-ium-4-carbonyl]-4-piperidyl]-2-[[4-[[3-(2,3-difluoro-4-methoxy-phenyl)imidazo[1,2-a]pyrazin-8-yl]amino]-2-ethyl-benzoyl]amino]acetate formate 2,2,2-trifluoroacetate (Mixed Salt) [Example 125]”, the 90% effect concentration (IC90) worked out at 1550 nM.

The same experiment, now with this note: Acinetobacter baumannii, ATCC17961, 16 h, 90% growth inhibition, Iso-Sensitest broth, OD 600 nm over 16 h, 35±2° C.; read-out: ATCC 17961 IC90.
Regarding `CCc1cc(Nc2nccn3c(-c4ccc(OC)c(F)c4F)cnc23)ccc1C(=O)NCC1CC[N+](CCO)(CC2CNC2)CC1` (stereo not shown) [Example 141, N-[[1-(Azetidin-3-ylmethyl)-1-(2-hydroxyethyl)piperidin-1-ium-4-yl]methyl]-4-[[3-(2,3-difluoro-4-methoxy-phenyl)imidazo[1,2-a]pyrazin-8-yl]amino]-2-ethyl-benzamide 2,2,2-trifluoroacetate], the concentration for an effect of 90% (IC90) was 169 nM.

With `CCc1cc(Nc2nccn3c(-c4ccc(OC)c(F)c4F)cnc23)ccc1C(=O)NCC1CC[N+](C)(CC2CCCN2)CC1` (stereo not shown) [Example 142, 4-[[3-(2,3-Difluoro-4-methoxy-phenyl)imidazo[1,2-a]pyrazin-8-yl]amino]-2-ethyl-N-[[1-methyl-1-(pyrrolidin-2-ylmethyl)piperidin-1-ium-4-yl]methyl]benzamide 2,2,2-trifluoroacetate], the IC90 was found to be 336 nM.

`CCc1cc(Nc2nccn3c(-c4ccc(OC)c(F)c4F)cnc23)ccc1C(=O)NCC1CC[N+](CC)(CC2CNC2)CC1` (stereo not shown) [Example 143, N-[[1-(Azetidin-3-ylmethyl)-1-ethyl-piperidin-1-ium-4-yl]methyl]-4-[[3-(2,3-difluoro-4-methoxy-phenyl)imidazo[1,2-a]pyrazin-8-yl]amino]-2-ethyl-benzamide Formate]: the IC90 was found to be 609 nM.

With `CCc1cc(Nc2nccn3c(-c4ccc(Oc5ccccc5)c(F)c4F)cnc23)ccc1C(=O)NCC1CC[N+](C)(CC2CCNC2)CC1` (stereo not shown) [Example 145, 4-[[3-(2,3-Difluoro-4-phenoxy-phenyl)imidazo[1,2-a]pyrazin-8-yl]amino]-2-ethyl-N-[[1-methyl-1-(pyrrolidin-3-ylmethyl)piperidin-1-ium-4-yl]methyl]benzamide Formate], the IC90 turned out to be 1780 nM.

In a further experiment the test system is Acinetobacter baumannii ATCC17978. The experiment is described as above. Format: cell-based. To be noted: ATCC17978, 90% growth inhibition, Iso-Sensitest broth, OD 600 nm over 16 h, 35±2° C., read-out: ATCC 17978 IC90. The method, then:
Antimicrobial Susceptibility Testing:
90% Growth Inhibitory Concentration (IC90) Determination
The in vitro antimicrobial activity of the compounds was determined according to the following procedure:
The assay used a 10-points Iso-Sensitest broth medium to measure quantitatively the in vitro activity of the compounds against Acinetobacter baumannii ATCC17961 and ATCC17978.
Stock compounds in DMSO were serially twofold diluted (e.g. range from 50 to 0.097 μM final concentration) in 384 wells microtiter plates and inoculated with 49 μl the bacterial suspension in Iso-Sensitest medium to have a final cell concentration of ˜5×10^(5) CFU/ml in a final volume/well of 50 ul/well. Microtiter plates were incubated at 35±2° C.
Bacterial cell growth was determined with the measurement of optical density at λ=600 nm each minutes over a time course of 16 h. Growth inhibition was calculated during the logarithmic growth of the bacterial cells with determination of the concentration inhibiting 50% (IC50) and 90% (IC90) of the growth.
Table 1 provides the 90% growth inhibitory concentrations (IC90) in micromoles per liter of the compounds of present invention obtained against the strain Acinetobacter baumannii ATCC17978.
As for `Cc1cc(Nc2nccn3c(-c4ccc(OC(F)F)cc4)cnc23)ccc1C(=O)NCCOCC[N+](C)(C)C` [Example 1, 2-(2-(4-((3-(4-(difluoromethoxy)phenyl)imidazo[1,2-a]pyrazin-8-yl)amino)-2-methylbenzamido)ethoxy)-N,N,N-trimethylethanaminium Iodide], the 90% effect concentration (IC90) is 658 nM.

As to `Cc1cc(Nc2nccn3c(-c4ccc(OCC#CCN)cc4)cnc23)ccc1C(=O)N(C)CCC1CC[N+](C)(C)CC1` [Example 5, 4-[[3-[4-(4-aminobut-2-ynoxy)phenyl]imidazo[1,2-a]pyrazin-8-yl]amino]-N-[2-(1,1-dimethylpiperidin-1-ium-4-yl)ethyl]-N,2-dimethyl-benzamide Formate], the 90% effect concentration (IC90) amounted to 2130 nM.

With `CCc1cc(Nc2nccn3c(-c4ccc(OC)c(F)c4F)cnc23)ccc1C(=O)NCCOCC[N+](C)(C)C` [Example 13, 2-(2-(4-((3-(2,3-difluoro-4-methoxyphenyl)imidazo[1,2-a]pyrazin-8-yl)amino)-2-ethylbenzamido)ethoxy)-N,N,N-trimethylethanaminium Formate], the IC90 was 109 nM.

On to `COc1ccc(-c2cnc3c(Nc4ccc(C(=O)N5CCN(CC[N+](C)(C)C)CC5)c(Br)c4)nccn23)cc1F` [Example 14, 2-[4-[2-Bromo-4-[[3-(3-fluoro-4-methoxy-phenyl)imidazo[1,2-a]pyrazin-8-yl]amino]benzoyl]piperazin-1-yl]ethyl-trimethyl-ammonium 2,2,2-trifluoroacetate], for which the IC90 turned out to be 476 nM.

Regarding `C#CCOc1ccc(-c2cnc3c(Nc4ccc(C(=O)NCCOCC[N+](C)(C)C)c(CC)c4)nccn23)c(F)c1F` [Example 15, 2-[2-[[4-[[3-(2,3-Difluoro-4-prop-2-ynoxy-phenyl)imidazo[1,2-a]pyrazin-8-yl]amino]-2-ethyl-benzoyl]amino]ethoxy]ethyl-trimethyl-ammonium 2,2,2-trifluoroacetate], the IC90 was found to be 238 nM.

On to `COc1ccc(-c2cnc3c(Nc4ccc5c(c4)CCN(CCOCC[N+](C)(C)C)C5=O)nccn23)c(F)c1F` [Example 16, 2-[2-[6-[[3-(2,3-difluoro-4-methoxy-phenyl)imidazo[1,2-a]pyrazin-8-yl]amino]-1-oxo-3,4-dihydroisoquinolin-2-yl]ethoxy]ethyl-trimethyl-ammonium Formate], for which the IC90 worked out at 396 nM.

On to `C[N+]1(CCOCCNC(=O)c2ccc(Nc3nccn4c(-c5ccc(OCC#N)c(F)c5F)cnc34)cc2Cl)CCNC(C(=O)O)C1` (stereo not shown) [Example 17, 4-[2-[2-[[2-chloro-4-[[3-[4-(cyanomethoxy)-2,3-difluoro-phenyl]imidazo[1,2-a]pyrazin-8-yl]amino]benzoyl]amino]ethoxy]ethyl]-4-methyl-piperazin-4-ium-2-carboxylic acid Formate], for which the concentration for an effect of 90% (IC90) came to 1290 nM.

Consider `Cc1cc(Nc2nccn3c(-c4ccc(OC(F)F)cc4)cnc23)ccc1C(=O)N(C)CCC1CC[N+](C)(C)CC1` [Example 19, 4-(2-(4-((3-(4-(difluoromethoxy)phenyl)imidazo[1,2-a]pyrazin-8-yl)amino)-N,2-dimethylbenzamido)ethyl)-1,1-dimethylpiperidin-1-ium Formate], for which the 90% effect concentration (IC90) amounted to 446 nM.

Regarding `CC[N+]1(C)CCC(CCNC(=O)c2ccc(Nc3nccn4c(-c5ccc(OC)cc5)cnc34)cc2C)CC1` (stereo not shown) [Example 20, 1-ethyl-4-(2-(4-((3-(4-methoxyphenyl)imidazo[1,2-a]pyrazin-8-yl)amino)-2-methylbenzamido)ethyl)-1-methylpiperidin-1-ium Formate], the concentration for an effect of 90% (IC90) was determined as 958 nM.

With `COc1ccc(-c2cnc3c(Nc4ccc(C(=O)N(C)CCC5CC[N+](C)(C)CC5)c(C)c4)nccn23)c(F)c1F` [Example 22, 4-[[3-(2,3-Difluoro-4-methoxy-phenyl)imidazo[1,2-a]pyrazin-8-yl]amino]-N-[2-(1,1-dimethylpiperidin-1-ium-4-yl)ethyl]-N,2-dimethyl-benzamide 2,2,2-trifluoroacetate], the 90% effect concentration (IC90) came out at 260 nM.

As to `COc1ccc(-c2cnc3c(Nc4ccc(C(=O)NCCC5CC[N+](C)(CC(=O)O)CC5)c(C)c4)nccn23)cc1` (stereo not shown) [Example 23, 1-(carboxymethyl)-4-(2-(4-((3-(4-methoxyphenyl)imidazo[1,2-a]pyrazin-8-yl)amino)-2-methylbenzamido)ethyl)-1-methylpiperidin-1-ium Formate], the 90% effect concentration (IC90) came to 2220 nM.

As to `CC[N+]1(CC)CCC(CCN(C)C(=O)c2ccc(Nc3nccn4c(-c5ccc(OC(F)F)cc5)cnc34)cc2C)CC1` [Example 24, 4-(2-(4-((3-(4-(difluoromethoxy)phenyl)imidazo[1,2-a]pyrazin-8-yl)amino)-N,2-dimethylbenzamido)ethyl)-1,1-diethylpiperidin-1-ium Formate], the concentration for an effect of 90% (IC90) was 742 nM.

For the compound `Cc1cc(Nc2nccn3c(-c4ccc(OC(F)F)cc4)cnc23)ccc1C(=O)NCCCCCC[N+](C)(C)C` [Example 25, 6-(4-((3-(4-(difluoromethoxy)phenyl)imidazo[1,2-a]pyrazin-8-yl)amino)-2-methylbenzamido)-N,N,N-trimethylhexan-1-aminium Formate], the IC90 came to 591 nM.

For `C[N+](C)(C)CCN1CCN(C(=O)c2ccc(Nc3nccn4c(-c5ccc(OCC#N)c(F)c5F)cnc34)cc2Cl)CC1` [Example 26, 2-[4-[2-chloro-4-[[3-[4-(cyanomethoxy)-2,3-difluorophenyl]imidazo[1,2-a]pyrazin-8-yl]amino]benzoyl]piperazin-1-yl]ethyl-trimethylazanium Iodide], the concentration for an effect of 90% (IC90) was 156 nM.

Turning to `COc1ccc(-c2cnc3c(Nc4ccc(C(=O)N5CCC(C(=O)NCC[N+](C)(C)C)CC5)c(C)c4)nccn23)cc1F` [Example 27, 2-(1-(4-((3-(3-Fluoro-4-methoxyphenyl)imidazo[1,2-a]pyrazin-8-yl)amino)-2-methylbenzoyl)piperidine-4-carboxamido)-N,N,N-trimethylethanaminium Formate], the concentration for an effect of 90% (IC90) is 249 nM.

The same experiment, now with this note: ATCC17978, 16 h, read-out: ATCC 17978 IC90.
Take `Cc1cc(Nc2nccn3c(-c4ccc(OCC#N)c(F)c4F)cnc23)ccc1C(=O)N1CCC(CC[N+](C)(C)C)CC1` [Example 2, 2-[1-[4-[[3-[4-(Cyanomethoxy)-2,3-difluoro-phenyl]imidazo[1,2-a]pyrazin-8-yl]amino]-2-methyl-benzoyl]-4-piperidyl]ethyl-trimethyl-ammonium Formate]: the 90% effect concentration (IC90) came out at 214 nM.

Consider `COc1ccc(-c2cnc3c(Nc4ccc(C(=O)N(C)CCN5CC[N+](C)(C)CC5)c(Cl)c4)nccn23)c(F)c1F` [Example 21, 2-chloro-4-[[3-(2,3-difluoro-4-methoxy-phenyl)imidazo[1,2-a]pyrazin-8-yl]amino]-N-[2-(4,4-dimethylpiperazin-4-ium-1-yl)ethyl]-N-methyl-benzamide 2,2,2-trifluoroacetate], for which the IC90 was 480 nM.
